# Reference: PubChem BioAssay (NCI)
#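 48-hour exposure; five concentrations; linearly interpolated endpoints. TGI: concentration producing complete growth inhibition.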
# What was measured:
# Assay in all cases: NCI-60 cell line screen, 48 h
# 786-0 renal = tested on: 786-0 renal
# A549 NSCLC = tested on: A549 NSCLC
# ACHN renal = tested on: ACHN renal
# CAKI-1 renal = tested on: CAKI-1 renal
# CCRF-CEM leukemia = tested on: CCRF-CEM leukemia
# COLO 205 colon = tested on: COLO 205 colon
# DU-145 prostate = tested on: DU-145 prostate
# EKVX NSCLC = tested on: EKVX NSCLC
# HCC-2998 colon = tested on: HCC-2998 colon
# HCT-116 colon = tested on: HCT-116 colon
# HCT-15 colon = tested on: HCT-15 colon
# HL-60(TB) leukemia = tested on: HL-60(TB) leukemia
# HOP-62 NSCLC = tested on: HOP-62 NSCLC
# HOP-92 NSCLC = tested on: HOP-92 NSCLC
# HS 578T breast = tested on: HS 578T breast
# HT29 colon = tested on: HT29 colon
# IGROV1 ovarian = tested on: IGROV1 ovarian
# K-562 leukemia = tested on: K-562 leukemia
# KM12 colon = tested on: KM12 colon
# LOX IMVI melanoma = tested on: LOX IMVI melanoma
# MALME-3M melanoma = tested on: MALME-3M melanoma
# MCF7 breast = tested on: MCF7 breast
# MDA-MB-231 breast = tested on: MDA-MB-231 breast
# MDA-N = tested on: MDA-N
# MOLT-4 leukemia = tested on: MOLT-4 leukemia
# NCI-H23 lung = tested on: NCI-H23 lung
# NCI-H460 lung = tested on: NCI-H460 lung
# NCI-H522 lung = tested on: NCI-H522 lung
# NCI/ADR-RES ovarian = tested on: NCI/ADR-RES ovarian
# OVCAR-3 ovarian = tested on: OVCAR-3 ovarian
# OVCAR-4 ovarian = tested on: OVCAR-4 ovarian
# OVCAR-5 ovarian = tested on: OVCAR-5 ovarian
# OVCAR-8 ovarian = tested on: OVCAR-8 ovarian
# PC-3 prostate = tested on: PC-3 prostate
# RPMI-8226 leukemia = tested on: RPMI-8226 leukemia
# SF-268 CNS = tested on: SF-268 CNS
# SF-295 CNS = tested on: SF-295 CNS
# SK-MEL-2 melanoma = tested on: SK-MEL-2 melanoma
# SK-MEL-28 melanoma = tested on: SK-MEL-28 melanoma
# SK-MEL-5 melanoma = tested on: SK-MEL-5 melanoma
# SK-OV-3 ovarian = tested on: SK-OV-3 ovarian
# SN12C renal = tested on: SN12C renal
# SNB-19 CNS = tested on: SNB-19 CNS
# SR leukemia = tested on: SR leukemia
# SW-620 colon = tested on: SW-620 colon
# T-47D breast = tested on: T-47D breast
# TK-10 renal = tested on: TK-10 renal
# U251 CNS = tested on: U251 CNS
# UACC-257 melanoma = tested on: UACC-257 melanoma
# UACC-62 melanoma = tested on: UACC-62 melanoma
# UO-31 renal = tested on: UO-31 renal
# A498 renal = tested on: A498 renal
# M14 melanoma = tested on: M14 melanoma
# MDA-MB-435 = tested on: MDA-MB-435
# NCI-H226 lung = tested on: NCI-H226 lung
# RXF 393 renal = tested on: RXF 393 renal
# SF-539 CNS = tested on: SF-539 CNS
# SNB-75 CNS = tested on: SNB-75 CNS
smiles,measurement,setting,value
S=C1NC2=C(CSC/C2=C\c2ccc(Cl)cc2)C(c2ccc(Cl)cc2)N1 (stereo not drawn),TGI,786-0 renal,84 µM
same,TGI,A549 NSCLC,> 100 µM
same,TGI,ACHN renal,> 100 µM
same,TGI,CAKI-1 renal,> 100 µM
same,TGI,CCRF-CEM leukemia,70.9 µM
same,TGI,COLO 205 colon,32.7 µM
same,TGI,DU-145 prostate,> 100 µM
same,TGI,EKVX NSCLC,> 100 µM
same,TGI,HCC-2998 colon,77.6 µM
same,TGI,HCT-116 colon,> 100 µM
same,TGI,HCT-15 colon,> 100 µM
same,TGI,HL-60(TB) leukemia,70.7 µM
same,TGI,HOP-62 NSCLC,> 100 µM
same,TGI,HOP-92 NSCLC,88.4 µM
same,TGI,HS 578T breast,> 100 µM
same,TGI,HT29 colon,> 100 µM
same,TGI,IGROV1 ovarian,> 100 µM
same,TGI,K-562 leukemia,> 100 µM
same,TGI,KM12 colon,> 100 µM
same,TGI,LOX IMVI melanoma,> 100 µM
same,TGI,MALME-3M melanoma,71.3 µM
same,TGI,MCF7 breast,> 100 µM
same,TGI,MDA-MB-231 breast,> 100 µM
same,TGI,MDA-N,> 100 µM
same,TGI,MOLT-4 leukemia,> 100 µM
same,TGI,NCI-H23 lung,> 100 µM
same,TGI,NCI-H460 lung,> 100 µM
same,TGI,NCI-H522 lung,> 100 µM
same,TGI,NCI/ADR-RES ovarian,> 100 µM
same,TGI,OVCAR-3 ovarian,> 100 µM
same,TGI,OVCAR-4 ovarian,> 100 µM
same,TGI,OVCAR-5 ovarian,> 100 µM
same,TGI,OVCAR-8 ovarian,> 100 µM
same,TGI,PC-3 prostate,> 100 µM
same,TGI,RPMI-8226 leukemia,94.5 µM
same,TGI,SF-268 CNS,> 100 µM
same,TGI,SF-295 CNS,> 100 µM
same,TGI,SK-MEL-2 melanoma,> 100 µM
same,TGI,SK-MEL-28 melanoma,> 100 µM
same,TGI,SK-MEL-5 melanoma,37.3 µM
same,TGI,SK-OV-3 ovarian,> 100 µM
same,TGI,SN12C renal,> 100 µM
same,TGI,SNB-19 CNS,> 100 µM
same,TGI,SR leukemia,> 100 µM
same,TGI,SW-620 colon,> 100 µM
same,TGI,T-47D breast,> 100 µM
same,TGI,TK-10 renal,> 100 µM
same,TGI,U251 CNS,> 100 µM
same,TGI,UACC-257 melanoma,> 100 µM
same,TGI,UACC-62 melanoma,> 100 µM
same,TGI,UO-31 renal,> 100 µM
Cn1c(=O)c2ccccc2[n+]2c(-c3cccc([N+](=O)[O-])c3)csc12,TGI,786-0 renal,> 100 µM
same,TGI,A498 renal,> 100 µM
same,TGI,A549 NSCLC,> 100 µM
same,TGI,ACHN renal,> 100 µM
same,TGI,CAKI-1 renal,> 100 µM
same,TGI,CCRF-CEM leukemia,> 100 µM
same,TGI,COLO 205 colon,> 100 µM
same,TGI,DU-145 prostate,> 100 µM
same,TGI,EKVX NSCLC,> 100 µM
same,TGI,HCC-2998 colon,> 100 µM
same,TGI,HCT-116 colon,> 100 µM
same,TGI,HL-60(TB) leukemia,62.8 µM
same,TGI,HOP-62 NSCLC,> 100 µM
same,TGI,HOP-92 NSCLC,> 100 µM
same,TGI,HS 578T breast,83.3 µM
same,TGI,HT29 colon,> 100 µM
same,TGI,IGROV1 ovarian,> 100 µM
same,TGI,K-562 leukemia,> 100 µM
same,TGI,KM12 colon,> 100 µM
same,TGI,LOX IMVI melanoma,> 100 µM
same,TGI,M14 melanoma,> 100 µM
same,TGI,MALME-3M melanoma,> 100 µM
same,TGI,MCF7 breast,> 100 µM
same,TGI,MDA-MB-231 breast,> 100 µM
same,TGI,MDA-MB-435,> 100 µM
same,TGI,MDA-N,> 100 µM
same,TGI,MOLT-4 leukemia,> 100 µM
same,TGI,NCI-H226 lung,> 100 µM
same,TGI,NCI-H23 lung,> 100 µM
same,TGI,NCI-H460 lung,> 100 µM
same,TGI,NCI-H522 lung,> 100 µM
same,TGI,NCI/ADR-RES ovarian,83.5 µM
same,TGI,OVCAR-3 ovarian,> 100 µM
same,TGI,OVCAR-4 ovarian,> 100 µM
same,TGI,OVCAR-5 ovarian,> 100 µM
same,TGI,OVCAR-8 ovarian,> 100 µM
same,TGI,PC-3 prostate,> 100 µM
same,TGI,RPMI-8226 leukemia,> 100 µM
same,TGI,RXF 393 renal,> 100 µM
same,TGI,SF-268 CNS,> 100 µM
same,TGI,SF-295 CNS,> 100 µM
same,TGI,SF-539 CNS,> 100 µM
same,TGI,SK-MEL-2 melanoma,> 100 µM
same,TGI,SK-MEL-28 melanoma,> 100 µM
same,TGI,SK-MEL-5 melanoma,> 100 µM
same,TGI,SK-OV-3 ovarian,> 100 µM
same,TGI,SN12C renal,> 100 µM
same,TGI,SNB-19 CNS,> 100 µM
same,TGI,SNB-75 CNS,82.2 µM
same,TGI,SR leukemia,71.5 µM
same,TGI,SW-620 colon,> 100 µM
same,TGI,T-47D breast,> 100 µM
same,TGI,TK-10 renal,> 100 µM
same,TGI,U251 CNS,> 100 µM
same,TGI,UACC-257 melanoma,> 100 µM
same,TGI,UACC-62 melanoma,> 100 µM
same,TGI,UO-31 renal,> 100 µM
